Source: patent US20230240297A1, “SELECTIVE HERBICIDES BASED ON SUBSTITUTED ISOXAZOLIN CARBOXAMIDES AND CYPROSULFAMIDE” (Bayer Aktiengesellschaft, priority 2020, published 2023)

Experiments:
ZEAMA Sileno [1] = experiment: Seed treatment with safener; post-emergence herbicide application; type: in vivo, maize; set-up: Reduction [Difference]: scale not given here; conditions: Final assessment; for Reduction [%] / Reduction [Difference]: Cyprosulfamide 0.5 g a.i./kg seed; for Reduction [Difference]: damage without safener - damage with safener; for HER effect + SAF (crop damage with safener): Cyprosulfamide seed treatment 0.5 g a.i./kg seed; for HER effect (crop damage, herbicide without safener): no safener
Protocol: For the safener seed treatment, sufficient seeds of the respective crops (spring wheat, TRZAS; spring barley, HORVS; maize, ZEAMA) were weighed into screw top glass bottles approximately twice the volume of the seeds.
The specified safeners, formulated as wettable powder (WP) were weighed out so that the specified rates (g a.i./kg seed) would be obtained, dissolved in water (1 ml water per 10 g of seeds), and added to the seeds to produce a slurry.
The bottles were capped and then placed in an overhead shaker (set at medium speed for ca. 60 minutes) so that the seeds were evenly coated with the slurry. The bottles were uncapped and the seeds were either placed on paper and dried for an interval of 3-4 hours prior to sowing, or directly sown. Seeds were placed in sandy loam soil in pots of a diameter of 7-8 cm, covered with soil, and cultivated in a greenhouse under good growth conditions.
Post-emergence application of the specified herbicides was done when the plants had reached growth stage BBCH11-13, on two sets of plants:
a) seed treatment with safener, as described above b) no safener treatment
The herbicides were formulated as WP and sprayed onto the green parts of the plants as an aqueous suspension at an equivalent water application rate of 300 1/ha, with addition of wetting agent and adjuvants (e.g. Mero, 1.5 1/ha; ammonium sulphate, 2 kg/ha)
After application, the test plants were kept in the greenhouse under good growth conditions.
Values in the table below are mean values of at least 2 replicates.

ZEAMA Sileno [2] = experiment: Tank-mix; post-emergence, crop damage with and without safener; type: in vivo, maize; conditions: for HER effect + SAF / HER effect: Final assessment; for HER effect: no safener
Protocol: Seeds of crops (spring wheat, TRZAS; spring barley, HORVS; maize, ZEAMA) were placed in sandy loam soil in peat pots, covered with soil and cultivated in a greenhouse under good growth conditions. Two to three weeks after sowing, the test plants were treated at the 1 to 3-leaf stage. The herbicide/safener active compound combinations according to the invention, formulated as wettable powders or emulsion concentrates, and, in parallel tests, the correspondingly formulated individual active compounds were sprayed onto the green parts of the plants in various dosages using an amount of water of 300 1/ha (converted).
The pots were returned under good growing conditions in a glasshouse and a visual assessment of herbicidal effects was made at intervals from 1 to 3 weeks after herbicide application (DAT = days after treatment). Assessment was on a percentage basis in comparison with untreated control plants (0% = no injury, 100% = complete kill).

[3] = HER 8 g a.i./ha, cyprosulfamide 50 g a.i./ha
[4] = HER 32 g a.i./ha, cyprosulfamide 100 g a.i./ha
[5] = HER dose 8 g a.i./ha + cyprosulfamide 50 g a.i./ha tank-mix
[6] = HER dose 32 g a.i./ha + cyprosulfamide 100 g a.i./ha tank-mix

Structure (SMILES) | Reduction [%] (ZEAMA Sileno [1]; HER dose 2 g a.i./ha) | Reduction [Difference] (ZEAMA Sileno [1]; HER dose 2 g a.i./ha) | HER effect + SAF (crop damage with safener) (ZEAMA Sileno [1]; HER dose 2 g a.i./ha) [%] | HER effect (crop damage, herbicide without safener) (ZEAMA Sileno [1]; HER dose 2 g a.i./ha) [%] | Reduction [%] (ZEAMA Sileno [1]; HER dose 8 g a.i./ha) | Reduction [Difference] (ZEAMA Sileno [1]; HER dose 8 g a.i./ha) | HER effect + SAF (crop damage with safener) (ZEAMA Sileno [1]; HER dose 8 g a.i./ha) [%] | HER effect (crop damage, herbicide without safener) (ZEAMA Sileno [1]; HER dose 8 g a.i./ha) [%] | Reduction [%] (ZEAMA Sileno [1]; HER dose 32 g a.i./ha) | Reduction [Difference] (ZEAMA Sileno [1]; HER dose 32 g a.i./ha) | HER effect + SAF (crop damage with safener) (ZEAMA Sileno [1]; HER dose 32 g a.i./ha) [%] | HER effect (crop damage, herbicide without safener) (ZEAMA Sileno [1]; HER dose 32 g a.i./ha) [%] | Reduction [%] (ZEAMA Sileno [2]; [3]) | Reduction [Difference] (ZEAMA Sileno [2]; [3]) | Reduction [%] (ZEAMA Sileno [2]; [4]) | Reduction [Difference] (ZEAMA Sileno [2]; [4]) | HER effect + SAF (ZEAMA Sileno [2]; [5]) [%] | HER effect (ZEAMA Sileno [2]; HER dose 8 g a.i./ha) [%] | HER effect + SAF (ZEAMA Sileno [2]; [6]) [%] | HER effect (ZEAMA Sileno [2]; HER dose 32 g a.i./ha) [%]
C=CC1(C(=O)NC2COC(C(=O)OCCCl)C2)CC(c2cc(F)cc(F)c2)=NO1 (mixture of isomers) [Example 1.82] | 100 | 28 | 0 | 28 | 89 | 83 | 10 | 93 | 84 | 77 | 15 | 92 |  |  |  |  |  |  |  | 
C=CCOC(=O)C1CC(NC(=O)C2(C=C)CC(c3cc(F)cc(F)c3)=NO2)CO1 (mixture of isomers) [Example 1.83] |  |  |  |  | 100 | 62 | 0 | 62 | 96 | 82 | 3 | 85 | 73 | 45 | 73 | 62 | 17 | 62 | 23 | 85
COC(=O)C1(C)CC(NC(=O)C2(C(C)(F)F)CC(c3cc(F)cc(F)c3)=NO2)CO1 (mixture of isomers) [Example 1.94] |  |  |  |  | 100 | 91 | 0 | 91 | 93 | 87 | 7 | 94 | 89 | 81 | 76 | 71 | 10 | 91 | 23 | 94
COCCOC(=O)C1C=CC(NC(=O)C2(C(F)(F)F)CC(c3cc(F)cc(C#N)c3)=NO2)C1 (centres unmarked) [Example 1.2] |  |  |  |  | 89 | 80 | 10 | 90 | 81 | 78 | 18 | 96 | 44 | 40 | 48 | 46 | 50 | 90 | 50 | 96
COCCOC(=O)C1C=CC(NC(=O)C2(C)CC(c3cc(Cl)cc(C#N)c3)=NO2)C1 (centres unmarked) [Example 1.5] | 100 | 23 | 0 | 23 | 88 | 75 | 10 | 85 | 79 | 76 | 20 | 96 | 55 | 47 | 50 | 48 | 38 | 85 | 48 | 96
